From patent publication US8846750B2, “Pharmaceutical and food compositions for preventing or treating diabetes or obesity” (Korea Ocean Research and Development Institute, priority 2010, dated 2014) come the findings set out here.

As a reminder, the IC50 is the midpoint of a concentration-inhibition curve.

Each structure is given as a SMILES string.

This assay has as its target T1, PTP-1b (Homo sapiens, UniProt P18031).
T1 construct: purchased Bioneer, Korea
T1 sequence (P18031 1-435): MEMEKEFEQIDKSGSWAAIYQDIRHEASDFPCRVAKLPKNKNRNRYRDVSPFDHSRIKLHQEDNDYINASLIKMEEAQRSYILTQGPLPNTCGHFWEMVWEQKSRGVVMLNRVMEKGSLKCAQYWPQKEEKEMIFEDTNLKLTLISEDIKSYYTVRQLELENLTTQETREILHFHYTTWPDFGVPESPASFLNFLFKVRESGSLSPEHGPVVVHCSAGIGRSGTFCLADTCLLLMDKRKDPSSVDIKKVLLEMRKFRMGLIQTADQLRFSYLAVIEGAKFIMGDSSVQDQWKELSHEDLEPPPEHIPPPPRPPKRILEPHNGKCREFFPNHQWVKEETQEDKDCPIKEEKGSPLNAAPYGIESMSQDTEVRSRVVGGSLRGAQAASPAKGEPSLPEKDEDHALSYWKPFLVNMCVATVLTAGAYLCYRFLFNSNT
Nature of the assay: PTP-1b inhibitory activity of lobaric acid (control), pNPP assay. It is filed as biochemical. The note with it: read-out: IC50 against PTP-1b. As for the experimental part:
Meanwhile, the PTP-1b inhibitory activity of lobaric acid as a control was measured. PTP-1b used in the test was purchased from BIOMOL (USA). In order to spectroscopically measure the activity of the enzyme, about 0.2 μg/Ml of PTP-1b, PTP-1b buffer (50 mM citrate, pH 6.0, 0.1M NaCl, 1 mM EDTA, 1 mM DTT), lobaric acid, 4 mM pNPP were mixed, shaken lightly, and then reacted at 37° C. for 30 minutes, after which the absorbance at 405 nm was measured.

Take `CCCCCc1c2c(cc(O)c1C(=O)O)OC(=O)c1c(cc(OC)cc1C(=O)CCCC)O2` [lobaric acid]: the IC50 turned out to be 0.87 µM.
